{
  "source": "patent US6498155B1",
  "about": "“Methods of treating thrombocytopenia” (SmithKline Beecham Corporation, priority 1998, dated 2002)",
  "key": {"32D-mpl cells": {"system": "32D-mpl cells", "conditions": "concentration 1-30 uM", "procedure": "(§1) 32D-mpl cells express Tpo-R and their survival is dependent on the presence of TPO. […] In this assay, purified human CD34+ progenitor cells were incubated in liquid culture with test compounds for 10 days and the number of cells expressing the transmembrane glycoprotein CD41 (gpIIb), a megakaryocytic marker, was then measured by flow cytometry (see Cwirla, S. E. et al Science, 1997, 276, 1696-1699)."}, "[1]": {"system": "purified human CD34+ progenitor cells", "conditions": "concentrations 1-30 uM; 10 days liquid culture, CD41 by flow cytometry", "procedure": "as §1"}},
  "data": [
    {"smiles": "Cl.Cl.Cl.Cl.Cl.Cl.Cl.Cl.O.O.c1cc(CN2CCCNCCNCCCNCC2)ccc1CN1CCCNCCNCCCNCC1", "note": "[Example 1, 1,1′-[1,4-Phenylenebis(methylene)]bis[1,4.8,11-tetraazacyclotetradecane]octahydrochloride Dihydrate]", "values": [
      {"measurement": "proliferation of 32D-mpl cells", "setting": "32D-mpl cells", "result": "promoted the proliferation"},
      {"measurement": "activity in the CD41 megakaryocytic assay", "setting": "[1]", "result": "showed activity"}
    ]}
  ]
}
